From EP1958941A1, “Oxazolidinones and their use as hypocholesterolemic agents” (Lipideon Biotechnology AG, priority 2007, dated 2008) come the findings set out here.

Each structure is given as a SMILES string.

The test deals with rabbit brush border membrane vesicles (BBMV). Description: inhibition of cholesterol uptake in rabbit brush border membrane vesicles (scavenger receptor-mediated uptake of radiolabelled cholesterol ester from donor particles). The test is classed as biochemical. Conditions: inhibition of uptake of radiolabelled cholesterol ester from loaded donor particles into the BBMV bilayer; test concentration not given. How it is done:
Chem. Int. Ed. 2004, 43, 4653-4656; Kvaerno, L. et. al. Org. Lett. 2005, 7, 1145-1148, van Bennekum, A. et. al. Biochemistry 2005, 44, 4517-4525).
The compounds of the invention (commercially obtained or prepared according to Wu, G. Z. et al., J. Org. Chem. 1999, 64, 3714-3718) together with the glucuronide (the metabolite of ezetimibe, prepared according to Vaccaro and Davis, Bioorg. Med. Chem. Lett. 1998, 8, 313-318) as appropriate reference compounds were evaluated by well-established methods to determine their inhibition of cholesterol uptake in rabbit brush border membrane vesicles (BBMV) (Table 1). Briefly, the scavenger receptor-mediated uptake of radiolabelled cholesterol ester from the loaded donor particles into the BBMV bilayer was measured in the presence of various compounds of the invention and appropriate reference compounds (Kvaerno, L. et al, Angew. Chem. Int. Ed. 2004, 43, 4653-4656; Kvaerno, L. et al, Org. Lett. 2005, 7, 1145-1148).
Consider `CCCNC(=O)c1ccc(N2C(=O)O[C@H](CO)[C@H]2c2ccc(O)cc2)cc1` [Compound 15, 4-((4R,5S)-5-(hydroxymethyl)-4-(4-hydroxyphenyl)-2-oxooxazolidin-3-yl)-N-propylbenzamide], for which the “CAI (%) Inhibition” value is given as 15 ± 4%.
Regarding `O=C1O[C@H](Cn2nncc2-c2ccccc2)[C@@H](c2ccc(O)cc2)N1c1ccc(F)cc1` [Compound 29, (4R, 5R)-3-(4-fluorophenyl)-4-(4-hydroxyphenyl)-5-((5-phenyl-1H-1,2,3-triazol-1-yl)methyl)oxazolidin-2-one], the “CAI (%) Inhibition” value is on record as 15 ± 1%.
As for `O=C1O[C@H](Cn2nncc2-c2ccc(F)cc2)[C@@H](c2ccc(O)cc2)N1c1ccc(F)cc1` [Compound 30, (4R,5R)-3-(4-fluorophenyl)-5-((5-(4-fluorophenyl)-1H-1,2,3-triazol-1-yl)methyl)-4-(4-hydroxyphenyl)oxazolidin-2-one], the “CAI (%) Inhibition” value is 16 ± 1%.
Then `CN(C)CCNC(=O)c1ccc(N2C(=O)O[C@H](CO)[C@H]2c2ccc(O)cc2)cc1` [Compound 33, N-(2-(dimethylamino)ethyl)-4-((4R,5S)-5-(hydroxymethyl)-4-(4-hydroxyphenyl)-2-oxooxazolidin-3-yl)-benzamide], with 16 ± 2%; and `C[N+](C)(C)CCNC(=O)c1ccc(N2C(=O)O[C@H](CO)[C@H]2c2ccc(OCc3ccccc3)cc2)cc1` [Compound 34, ((4R,5S)-4-(4-(benzyloxy)phenyl)-5-(hydroxy-methyl)-2-oxooxazolidin-3-yl)-N-(2-(trimethylamonium-iodide)ethyl)benzamide], with 29 ± 3%.
Turning to `C[N+](C)(C)CCNC(=O)c1ccc(N2C(=O)O[C@H](CO)[C@H]2c2ccc(O)cc2)cc1` [Compound 35, ((4R,5S)-4-(4-hydroxyphenyl)-5-(hydroxymethyl)-2-oxooxazolidin-3-yl)-N-(2-(trimethylamoniumbromide)ethyl)-benzamide], the “CAI (%) Inhibition” value is on record as 20 ± 1%.
Then `O=C(NCCN1CCOCC1)c1ccc(N2C(=O)O[C@H](CO)[C@H]2c2ccc(OCc3ccccc3)cc2)cc1` [Compound 36, 4-((4R,5S)-4-(4-(benzyloxy)phenyl)-5-(hydroxymethyl)-2-oxooxazolidin-3-yl)-N-(2-morpholinoethyl)-benzamide], with 33 ± 2%; and `O=C(NCCN1CCOCC1)c1ccc(N2C(=O)O[C@H](CO)[C@H]2c2ccc(O)cc2)cc1` [Compound 37, 4-((4R,5S)-5-(hydroxymethyl)-4-(4-hydroxy-phenyl)-2-oxooxazolidin-3-yl)-N-(2-morpholinoethyl)-benzamide], with 21 ± 3%.
In the case of `C[N+]1(CCNC(=O)c2ccc(N3C(=O)O[C@H](CO)[C@H]3c3ccc(OCc4ccccc4)cc3)cc2)CCOCC1.[I-]` [Compound 38, 4-(2-(4-((4R,5S)-4-(4-(benzyloxy)phenyl)-5-(hydroxymethyl)-2-oxooxazolidin-3-yl)benzamido)ethyl)-4-methylmorpholin-4-ium iodide], the “CAI (%) Inhibition” value is 24 ± 2%.
Then `O=C1[C@H](CC[C@H](O)c2ccc(F)cc2)[C@@H](c2ccc(O)cc2)N1c1ccc(F)cc1` [Ezetimibe, reference compound], with 15 ± 4%.
